Here are results for two molecules from paper PMC5362899, “Structural insights into the nucleotide base specificity of P2X receptors” (Scientific Reports, 2017).

The assay addresses T1, rat P2X4 rT186A mutant (Rattus norvegicus, UniProt P51577, T186A).
T1 construct: rat P2X4 (NP_113782.1; WT and mutants) were transcribed from pGEMHE plasmids; expressed in transfected cells; host or cells: Xenopus laevis oocytes injected with cRNA from pGEMHE
T1 sequence (P51577 1-388 T186A): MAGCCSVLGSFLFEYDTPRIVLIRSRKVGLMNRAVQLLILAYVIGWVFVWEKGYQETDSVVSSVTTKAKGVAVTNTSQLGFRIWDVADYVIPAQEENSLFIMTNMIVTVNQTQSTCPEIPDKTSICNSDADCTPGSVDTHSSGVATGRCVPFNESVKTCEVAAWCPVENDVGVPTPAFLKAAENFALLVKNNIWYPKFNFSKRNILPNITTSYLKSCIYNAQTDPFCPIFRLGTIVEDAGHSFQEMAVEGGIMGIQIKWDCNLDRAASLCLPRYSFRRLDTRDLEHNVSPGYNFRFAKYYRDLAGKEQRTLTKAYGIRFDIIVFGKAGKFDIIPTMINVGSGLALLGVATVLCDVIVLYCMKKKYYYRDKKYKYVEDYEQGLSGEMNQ
The assay can be described thus: Two-Electrode Voltage Clamp recording, rat P2X4 T186A mutant in Xenopus oocytes. Type of assay: cell-based. The note with it: 3 mM ATP, 3 mM CTP (Fig. S3). The text has this: To further investigate the functional roles of the residues involved in the base recognition, T189 and R143, we performed an electrophysiological analysis with the rat P2X4, since its electrophysiological properties have been well established. We first assessed the functional role of T189 in zfP2X4 and introduced mutations at the equivalent residue of the rat P2X4 to create three mutants (^rT186A, ^rT186V and ^rT186S; the superscript “r” means rat P2X4). […] Therefore, we examined the ^rWT and the ^rT186S mutant.
The cRNAs encoding zebrafish P2X4 (NP_705939; WT) and rat P2X4 (NP_113782.1; WT and mutants) were transcribed from pGEMHE plasmids, using a mMessage mMachine® T7 ULTRA kit (Ambion, Huntingdon, Cambridgeshire, UK). Xenopus laevis oocytes were prepared, and RNA (100 ng for zebrafish P2X4, and 20 ng for rat P2X4) was injected into the oocytes. The oocytes were incubated at 18 °C in Barth’s solution, containing 88 mM NaCl, 1 mM KCl, 2.4 mM NaHCO3, 10 mM HEPES, 0.33 mM Ca(NO3)2, 0.41 mM CaCl2, and 0.82 mM MgSO4, pH 7.4, supplemented with 50 μg/ml gentamicin, and were used for recording after 2–3 days. […] Oocytes were held at −70 mV with a bath-clamp amplifier (OC-725C, Warner Co., USA), and macroscopic currents were recorded and analyzed using the pClamp 10 software (Molecular Devices, USA)[33][34]. We measured n = 4 for zebrafish P2X4 data and n = 7–9 for rat P2X4 data. […]
(In general: In two-electrode clamp one electrode senses voltage and the other passes current.)

As to `Nc1ncnc2c1ncn2[C@@H]1O[C@H](COP(=O)(O)OP(=O)(O)OP(=O)(O)O)[C@@H](O)[C@H]1O` [ATP, Adenosine 5-triphosphate], the nucleotide-evoked currents result was “no ATP- and CTP-evoked currents were detected”.

With `Nc1ccn([C@@H]2O[C@H](COP(=O)(O)OP(=O)(O)OP(=O)(O)O)[C@@H](O)[C@H]2O)c(=O)n1` [CTP], the nucleotide-evoked currents result is “no ATP- and CTP-evoked currents were detected”.
